Experiment [1] concerns the target T1, Histone deacetylase 4 (Homo sapiens, UniProt P56524). The experiment is described as follows: Inhibition of HDAC4.
Experiment [2] has as its target T2, Protein deacetylase HDAC6 (Homo sapiens, UniProt Q9UBN7).
T2 sequence (Q9UBN7 whole entry): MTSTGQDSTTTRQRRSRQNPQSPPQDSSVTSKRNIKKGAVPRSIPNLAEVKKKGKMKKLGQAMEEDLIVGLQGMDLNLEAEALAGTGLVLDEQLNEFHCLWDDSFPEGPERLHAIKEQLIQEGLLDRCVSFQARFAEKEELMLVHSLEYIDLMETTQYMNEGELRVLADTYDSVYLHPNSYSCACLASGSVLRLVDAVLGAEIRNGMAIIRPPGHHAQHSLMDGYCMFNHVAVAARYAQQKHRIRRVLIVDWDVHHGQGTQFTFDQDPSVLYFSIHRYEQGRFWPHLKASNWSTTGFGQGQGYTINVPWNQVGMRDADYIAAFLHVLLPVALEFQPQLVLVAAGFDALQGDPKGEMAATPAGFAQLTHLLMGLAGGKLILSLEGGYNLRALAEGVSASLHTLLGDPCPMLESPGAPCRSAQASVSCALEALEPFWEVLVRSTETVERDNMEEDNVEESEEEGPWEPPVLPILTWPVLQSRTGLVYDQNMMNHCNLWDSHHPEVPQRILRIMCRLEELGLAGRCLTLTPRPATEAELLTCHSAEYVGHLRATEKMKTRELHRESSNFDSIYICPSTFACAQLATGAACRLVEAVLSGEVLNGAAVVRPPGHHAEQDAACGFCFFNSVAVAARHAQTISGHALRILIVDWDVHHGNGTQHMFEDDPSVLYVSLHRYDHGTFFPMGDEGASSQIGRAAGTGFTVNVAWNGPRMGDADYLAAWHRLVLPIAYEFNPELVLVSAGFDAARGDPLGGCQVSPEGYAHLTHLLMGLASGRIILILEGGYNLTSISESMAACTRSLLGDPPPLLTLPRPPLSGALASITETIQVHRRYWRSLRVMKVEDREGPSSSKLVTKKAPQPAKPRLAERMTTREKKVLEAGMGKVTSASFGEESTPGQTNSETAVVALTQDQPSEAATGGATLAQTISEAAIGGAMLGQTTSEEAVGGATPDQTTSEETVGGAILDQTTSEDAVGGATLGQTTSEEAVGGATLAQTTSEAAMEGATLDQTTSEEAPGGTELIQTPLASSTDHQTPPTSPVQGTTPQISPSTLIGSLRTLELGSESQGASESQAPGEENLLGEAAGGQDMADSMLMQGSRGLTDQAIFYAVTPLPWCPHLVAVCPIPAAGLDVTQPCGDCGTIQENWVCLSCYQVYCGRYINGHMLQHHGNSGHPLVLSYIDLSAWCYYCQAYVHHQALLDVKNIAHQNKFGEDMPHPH
Nature of the experiment: Inhibition of HDAC6.

The target of experiment [3] is T1, Histone deacetylase 4.
For a further experiment, the target named is Histone deacetylase 1 (Homo sapiens, UniProt Q13547). Nature of the experiment: Inhibition of HDAC1.
Experiment [4] can be described thus: Selectivity ratio, IC50 for HDAC6 to IC50 for HDAC4.

Where a SMILES comes first, the peptide text is derived from it. [ ]: non-standard residue; d: D form. The star is where a group is joined. Asu = N[C@@H](CCCCCC(=O)O)C(=O)O; dAhp(2) = CCCCC[C@@H](N)C(=O)O; Ahp(2) = CCCCC[C@H](N)C(=O)O; NHOH = ON*

T1 sequence (P56524 whole entry): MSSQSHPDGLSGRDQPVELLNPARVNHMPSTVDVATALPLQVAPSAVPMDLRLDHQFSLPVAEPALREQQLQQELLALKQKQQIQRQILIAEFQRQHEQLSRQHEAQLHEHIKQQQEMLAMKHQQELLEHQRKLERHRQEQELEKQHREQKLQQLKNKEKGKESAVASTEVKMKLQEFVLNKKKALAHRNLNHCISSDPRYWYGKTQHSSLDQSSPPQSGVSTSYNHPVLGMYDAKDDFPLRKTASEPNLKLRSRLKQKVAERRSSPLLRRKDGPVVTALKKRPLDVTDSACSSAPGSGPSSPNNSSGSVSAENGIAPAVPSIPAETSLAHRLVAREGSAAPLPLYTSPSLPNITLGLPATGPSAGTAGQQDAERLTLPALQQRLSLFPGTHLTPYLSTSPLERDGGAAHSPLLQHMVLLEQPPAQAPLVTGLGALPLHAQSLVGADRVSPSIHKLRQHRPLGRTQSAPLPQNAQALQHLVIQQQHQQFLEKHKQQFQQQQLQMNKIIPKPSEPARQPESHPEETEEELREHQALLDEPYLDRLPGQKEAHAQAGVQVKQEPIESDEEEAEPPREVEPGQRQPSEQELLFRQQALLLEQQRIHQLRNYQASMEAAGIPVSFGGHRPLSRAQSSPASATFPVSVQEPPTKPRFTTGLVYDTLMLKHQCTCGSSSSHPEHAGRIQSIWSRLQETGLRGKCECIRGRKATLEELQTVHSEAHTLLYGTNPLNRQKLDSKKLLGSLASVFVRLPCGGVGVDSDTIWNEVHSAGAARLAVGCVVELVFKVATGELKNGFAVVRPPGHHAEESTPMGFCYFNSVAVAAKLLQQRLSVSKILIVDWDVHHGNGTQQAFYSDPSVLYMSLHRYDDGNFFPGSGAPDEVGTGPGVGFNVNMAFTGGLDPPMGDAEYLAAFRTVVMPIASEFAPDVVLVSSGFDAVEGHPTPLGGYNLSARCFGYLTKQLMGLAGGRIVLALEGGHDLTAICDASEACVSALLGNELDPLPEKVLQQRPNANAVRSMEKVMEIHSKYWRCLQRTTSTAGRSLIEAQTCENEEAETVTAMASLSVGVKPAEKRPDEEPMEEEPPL
Sequence of Histone deacetylase 1 (Q13547 whole entry): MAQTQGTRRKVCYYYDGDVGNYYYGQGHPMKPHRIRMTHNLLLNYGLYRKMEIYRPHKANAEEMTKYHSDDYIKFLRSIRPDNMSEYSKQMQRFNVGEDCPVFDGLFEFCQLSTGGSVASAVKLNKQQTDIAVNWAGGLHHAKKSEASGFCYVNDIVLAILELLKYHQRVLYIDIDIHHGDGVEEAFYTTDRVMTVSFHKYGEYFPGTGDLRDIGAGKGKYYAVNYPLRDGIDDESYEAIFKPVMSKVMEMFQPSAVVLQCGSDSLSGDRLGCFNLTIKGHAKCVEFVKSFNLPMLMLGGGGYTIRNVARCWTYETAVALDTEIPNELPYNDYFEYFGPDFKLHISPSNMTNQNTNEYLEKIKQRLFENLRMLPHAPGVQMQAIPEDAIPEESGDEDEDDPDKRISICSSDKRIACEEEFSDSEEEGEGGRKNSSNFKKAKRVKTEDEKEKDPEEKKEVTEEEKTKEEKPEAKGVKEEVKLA

In the case of `O=C(CCCCC[C@@H]1NC(=O)[C@H]2CCCN2C(=O)[C@@H]2CCCCCCCCCCC[C@@H](NC1=O)C(=O)N2)NO`, the IC50 was determined as 4.5 nM against Histone deacetylase 4 [1], 280 nM in experiment [2] and 11 nM on Histone deacetylase 1. On Histone deacetylase 4 [3], the EC1000 amounted to 2.6 nM.
On the same counts, the results for `O=C(CCCCC[C@@H]1NC(=O)[C@H]2CCCN2C(=O)[C@@H]2CCCCCCCCC[C@@H](NC1=O)C(=O)N2)NO` are 5.4 nM, 330 nM, 9.1 nM and 92 nM.
Taken in the same sequence, the figures for `CCCCC[C@@H]1NC(=O)[C@@H](CCCCC)NC(=O)[C@H](CCCCCC(=O)NO)NC(=O)[C@H]2CCCN2C1=O` (cyclo([Ahp(2)][dP][Asu](NHOH)[dAhp(2)])) were 12 nM, 340 nM, 25 nM and 13 nM.
As for `O=C(CCCCC[C@@H]1NC(=O)[C@H]2CCCN2C(=O)[C@@H]2CCCCCCCCCC[C@@H](NC1=O)C(=O)N2)NO`, the figures for the half-inhibitory concentration (IC50) (at Histone deacetylase 4 [1]; in experiment [2]; at Histone deacetylase 1) were 5.5 nM, 410 nM and 9.1 nM, respectively. Moreover, the Ratio IC50 in experiment [4] was found to be 75. At Histone deacetylase 4 [3], this compound gave an EC1000 of 7.2 nM.
On Histone deacetylase 4 [3], `CC(/C=C/C(=O)NO)=C\[C@@H](C)C(=O)c1ccc(N(C)C)cc1` registered an EC1000 of 20 nM.
`O=C(CCCCC[C@@H]1NC(=O)[C@H]2CCCN2C(=O)[C@@H]2CCCCCCCCCCCC[C@@H](NC1=O)C(=O)N2)NO`: the IC50 at Histone deacetylase 4 [1] came out at 5 nM; in experiment [2], 240 nM; against Histone deacetylase 1, 13 nM. The EC1000 on Histone deacetylase 4 [3] was 2 nM.

Usually IC50 stands for the midpoint of a concentration-inhibition curve. A higher IC50 goes with a need for much substance.

For the origin of these results see ChEMBL document CHEMBL1159078, “Bicyclic peptides as potent inhibitors of histone deacetylases: optimization of alkyl loop length” (Bioorg Med Chem Lett, 2010).
